According to patent publication US20230167114A1, “MACROCYCLIC JAK INHIBITOR AND USE THEREOF” (Biopolar Hongye (Guangdong) Pharmaceutical Co., Ltd., priority 2020, published 2023):
pIC50: −log10 of the molar value.

Tests used:
Assay type in all cases: biochemical
JAK2 = JAK2 (Homo sapiens, UniProt O60674); assay: JAK kinase activity, homogeneous time-resolved fluorescence (JAK2 reaction system); conditions: ATP 2 μM, JAK2 protein 0.01 ng/μL
Description: (§1) The activity measurement method of JAK kinase was to use homogeneous time-resolved fluorescence technique. The reaction was performed in 384 shallow well plates with a total reaction volume of 10 μL. The mixture of kinase protein, compound, ATP and substrate was carried out in a reaction buffer of 50 mM Hepes (pH7.0), NaN3 0.02%, BSA 0.01%, 0.1 mM orthocanadate, 5 mM MgCl2, and 1 mM DTT. After reacting for 1 hour, antibody capable of recognizing substrate phosphorylation and dye XL-615 and detection buffer (Cisbio) containing EDTA were added to the system. The reaction signal of kinase was detected by PE company's porous plate detector. The parameter settings were excitation light at 320 nm, emission light at 615 nm and 665 nm. The activity of JAK is indirectly reflected by the signal ratio of 665 nm and 615 nm. In the reaction, the background well without enzyme and the total enzyme activity well without compound were set.
(§2) The IC50 value of the compound inhibiting protein was obtained by the formula: Y=100/(1+10^((Log IC50−X)*HillSlope)).
In JAK2 reaction system, the concentration of ATP was 2 μM, and the concentration of JAK2 protein was 0.01 ng/μL.

JAK3 = target: T1, JAK3 (Homo sapiens, UniProt P52333); assay: JAK kinase activity, homogeneous time-resolved fluorescence (JAK3 reaction system); conditions: ATP 2 μM, JAK3 protein 0.04 ng/μL; read-out: JAK 3 activity
T1 sequence (P52333 1-1124): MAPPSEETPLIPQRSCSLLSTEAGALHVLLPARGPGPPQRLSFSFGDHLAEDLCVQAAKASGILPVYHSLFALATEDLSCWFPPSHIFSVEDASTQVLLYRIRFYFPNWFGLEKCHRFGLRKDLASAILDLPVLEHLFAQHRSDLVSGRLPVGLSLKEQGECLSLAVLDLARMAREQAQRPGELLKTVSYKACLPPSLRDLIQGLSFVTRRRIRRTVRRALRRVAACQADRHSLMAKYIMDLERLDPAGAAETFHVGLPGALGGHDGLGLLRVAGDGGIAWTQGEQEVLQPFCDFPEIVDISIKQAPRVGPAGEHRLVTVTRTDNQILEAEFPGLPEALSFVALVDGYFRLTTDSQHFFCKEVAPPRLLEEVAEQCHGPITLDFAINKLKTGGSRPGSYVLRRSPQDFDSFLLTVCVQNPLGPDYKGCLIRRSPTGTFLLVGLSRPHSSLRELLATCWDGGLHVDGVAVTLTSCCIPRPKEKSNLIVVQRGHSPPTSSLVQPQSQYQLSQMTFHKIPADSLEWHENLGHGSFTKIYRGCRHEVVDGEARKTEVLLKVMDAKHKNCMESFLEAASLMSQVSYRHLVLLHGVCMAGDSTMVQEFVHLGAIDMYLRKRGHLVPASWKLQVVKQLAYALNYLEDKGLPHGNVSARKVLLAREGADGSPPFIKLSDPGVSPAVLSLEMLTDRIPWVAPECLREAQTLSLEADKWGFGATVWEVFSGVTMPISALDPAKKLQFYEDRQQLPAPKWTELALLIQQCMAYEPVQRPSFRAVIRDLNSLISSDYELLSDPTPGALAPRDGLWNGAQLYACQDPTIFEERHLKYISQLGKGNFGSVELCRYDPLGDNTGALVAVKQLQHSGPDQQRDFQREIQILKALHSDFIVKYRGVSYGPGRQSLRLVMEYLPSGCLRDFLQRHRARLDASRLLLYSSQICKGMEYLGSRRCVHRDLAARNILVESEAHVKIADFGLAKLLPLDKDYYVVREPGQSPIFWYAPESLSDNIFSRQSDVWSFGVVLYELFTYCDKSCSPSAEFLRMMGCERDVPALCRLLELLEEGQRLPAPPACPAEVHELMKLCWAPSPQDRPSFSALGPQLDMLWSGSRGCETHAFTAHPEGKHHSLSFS
Description: as §1, §2
In JAK3 reaction system, the concentration of ATP was 2 μM, and the concentration of JAK3 protein was 0.04 ng/μL.

JAK1 = JAK1 (Homo sapiens, UniProt P23458); assay: JAK kinase activity, homogeneous time-resolved fluorescence (JAK1 reaction system); conditions: ATP 2 μM, JAK1 protein 0.2 ng/μL; read-out: JAK 1 activity
Description: as §1, §2
In JAK1 reaction system, the concentration of ATP was 2 μM, and the concentration of JAK1 protein was 0.2 ng/μL.

TYK2 = TYK2 (Homo sapiens, UniProt P29597); assay: JAK kinase activity, homogeneous time-resolved fluorescence (TYK2 reaction system); conditions: ATP 2 μM, TYK2 protein 0.2 ng/μL; read-out: TYK 2 activity
Description: as §1, §2
In TYK2 reaction system, the concentration of ATP was 2 μM and the concentration of TYK2 protein was 0.2 ng/μL.

JAK2, sequence (O60674 whole entry): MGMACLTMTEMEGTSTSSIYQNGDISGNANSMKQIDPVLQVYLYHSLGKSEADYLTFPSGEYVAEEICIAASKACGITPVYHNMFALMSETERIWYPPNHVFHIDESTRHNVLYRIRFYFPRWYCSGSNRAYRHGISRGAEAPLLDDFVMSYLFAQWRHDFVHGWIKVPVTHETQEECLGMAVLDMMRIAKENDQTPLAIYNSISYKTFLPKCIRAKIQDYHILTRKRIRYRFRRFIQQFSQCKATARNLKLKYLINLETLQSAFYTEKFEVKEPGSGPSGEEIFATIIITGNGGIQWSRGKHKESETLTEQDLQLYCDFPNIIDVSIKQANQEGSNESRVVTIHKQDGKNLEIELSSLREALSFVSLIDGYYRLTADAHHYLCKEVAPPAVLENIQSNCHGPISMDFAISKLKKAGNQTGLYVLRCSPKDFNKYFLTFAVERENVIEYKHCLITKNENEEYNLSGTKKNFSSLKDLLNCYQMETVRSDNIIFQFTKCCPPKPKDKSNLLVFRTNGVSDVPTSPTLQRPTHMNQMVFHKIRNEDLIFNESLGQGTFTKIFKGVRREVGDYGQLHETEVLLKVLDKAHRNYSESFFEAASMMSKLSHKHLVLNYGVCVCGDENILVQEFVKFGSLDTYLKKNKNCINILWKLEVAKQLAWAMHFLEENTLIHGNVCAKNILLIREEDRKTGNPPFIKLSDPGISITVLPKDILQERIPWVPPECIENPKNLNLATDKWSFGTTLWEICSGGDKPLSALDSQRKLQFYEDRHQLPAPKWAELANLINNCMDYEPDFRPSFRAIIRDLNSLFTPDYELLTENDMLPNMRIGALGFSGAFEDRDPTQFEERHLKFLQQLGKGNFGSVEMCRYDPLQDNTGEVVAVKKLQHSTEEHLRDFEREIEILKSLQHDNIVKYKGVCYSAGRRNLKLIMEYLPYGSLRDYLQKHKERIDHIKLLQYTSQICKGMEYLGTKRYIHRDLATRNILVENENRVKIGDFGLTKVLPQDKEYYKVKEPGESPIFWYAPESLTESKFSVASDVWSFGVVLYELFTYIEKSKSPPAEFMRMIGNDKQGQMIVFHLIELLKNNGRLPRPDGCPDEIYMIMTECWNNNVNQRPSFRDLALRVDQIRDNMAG
JAK1, sequence (P23458 whole entry): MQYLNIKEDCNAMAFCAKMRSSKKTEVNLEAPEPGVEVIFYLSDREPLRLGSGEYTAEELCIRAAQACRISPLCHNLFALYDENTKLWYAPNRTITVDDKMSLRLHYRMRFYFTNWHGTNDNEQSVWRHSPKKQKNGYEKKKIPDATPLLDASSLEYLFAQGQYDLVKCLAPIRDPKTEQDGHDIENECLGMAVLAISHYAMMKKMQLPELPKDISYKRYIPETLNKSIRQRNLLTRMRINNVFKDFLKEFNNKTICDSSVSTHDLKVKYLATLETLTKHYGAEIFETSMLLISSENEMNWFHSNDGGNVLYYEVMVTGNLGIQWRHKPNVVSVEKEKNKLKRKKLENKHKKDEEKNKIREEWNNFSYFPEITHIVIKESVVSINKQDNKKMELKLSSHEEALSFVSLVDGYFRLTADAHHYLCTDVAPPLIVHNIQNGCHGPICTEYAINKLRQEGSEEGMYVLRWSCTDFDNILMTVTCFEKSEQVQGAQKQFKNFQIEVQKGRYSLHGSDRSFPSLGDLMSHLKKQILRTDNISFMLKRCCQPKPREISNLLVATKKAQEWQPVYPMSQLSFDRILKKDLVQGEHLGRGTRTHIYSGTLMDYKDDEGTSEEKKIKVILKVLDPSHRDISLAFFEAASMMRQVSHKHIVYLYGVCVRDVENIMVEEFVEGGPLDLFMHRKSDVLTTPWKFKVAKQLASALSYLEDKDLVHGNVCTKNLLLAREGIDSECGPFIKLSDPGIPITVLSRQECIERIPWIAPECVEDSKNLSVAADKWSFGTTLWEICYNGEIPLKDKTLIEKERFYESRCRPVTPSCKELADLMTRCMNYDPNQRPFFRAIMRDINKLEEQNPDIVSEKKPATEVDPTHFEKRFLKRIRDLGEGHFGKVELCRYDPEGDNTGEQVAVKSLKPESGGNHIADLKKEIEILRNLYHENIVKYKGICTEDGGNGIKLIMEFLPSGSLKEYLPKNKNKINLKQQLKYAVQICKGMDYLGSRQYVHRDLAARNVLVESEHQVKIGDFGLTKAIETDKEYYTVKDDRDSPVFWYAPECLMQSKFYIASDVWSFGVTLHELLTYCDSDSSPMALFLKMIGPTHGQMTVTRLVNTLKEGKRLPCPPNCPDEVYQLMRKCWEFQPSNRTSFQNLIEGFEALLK
TYK2, sequence (P29597 whole entry): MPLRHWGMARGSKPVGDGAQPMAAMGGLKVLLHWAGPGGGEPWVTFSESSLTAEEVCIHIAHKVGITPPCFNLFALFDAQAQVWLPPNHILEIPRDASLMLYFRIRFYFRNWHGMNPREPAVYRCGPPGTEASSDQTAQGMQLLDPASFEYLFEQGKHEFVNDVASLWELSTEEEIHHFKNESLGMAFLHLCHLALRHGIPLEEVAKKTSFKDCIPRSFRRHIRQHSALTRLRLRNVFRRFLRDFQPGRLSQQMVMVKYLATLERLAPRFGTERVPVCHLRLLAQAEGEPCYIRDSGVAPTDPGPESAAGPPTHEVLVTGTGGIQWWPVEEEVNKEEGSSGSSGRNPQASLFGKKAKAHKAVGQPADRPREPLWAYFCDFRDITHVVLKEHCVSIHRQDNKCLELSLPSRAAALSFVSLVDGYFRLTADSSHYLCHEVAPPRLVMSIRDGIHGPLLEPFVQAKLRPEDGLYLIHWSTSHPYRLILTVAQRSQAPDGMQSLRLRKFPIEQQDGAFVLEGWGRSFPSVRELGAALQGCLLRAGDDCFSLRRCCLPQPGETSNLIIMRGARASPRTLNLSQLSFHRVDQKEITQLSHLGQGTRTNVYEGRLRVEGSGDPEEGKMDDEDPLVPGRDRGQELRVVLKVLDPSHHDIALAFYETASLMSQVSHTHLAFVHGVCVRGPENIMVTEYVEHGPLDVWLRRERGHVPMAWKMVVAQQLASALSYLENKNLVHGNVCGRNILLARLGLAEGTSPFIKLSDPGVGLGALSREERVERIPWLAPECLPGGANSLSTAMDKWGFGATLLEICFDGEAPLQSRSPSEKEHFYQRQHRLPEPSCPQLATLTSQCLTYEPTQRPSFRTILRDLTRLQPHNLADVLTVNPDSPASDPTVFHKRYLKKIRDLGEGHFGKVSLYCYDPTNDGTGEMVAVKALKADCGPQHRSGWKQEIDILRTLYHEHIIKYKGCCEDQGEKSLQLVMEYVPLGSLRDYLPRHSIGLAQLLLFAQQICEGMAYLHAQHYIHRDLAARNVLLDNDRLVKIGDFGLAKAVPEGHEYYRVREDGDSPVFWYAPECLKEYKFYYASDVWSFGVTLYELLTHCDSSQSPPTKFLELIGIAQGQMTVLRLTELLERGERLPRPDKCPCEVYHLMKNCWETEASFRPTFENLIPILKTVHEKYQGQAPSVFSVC

SMILES | pIC50 (JAK2) | pIC50 (JAK3) | pIC50 (JAK1) | pIC50 (TYK2)
COc1cc2cc(c1)Nc1nc(ncc1C)Nc1cc(cnc1F)-c1ccc(cc1)C(=O)NCC2 [Compound 47, 2^6-fluoro-6^5-methoxy-4^5-methyl-3,5,9-triaza-4(2,4)-pyrimidina-2(3,5)-pyridina-1(1,4),6(1,3)-dibenzenacyclodecaphan-10-one] | 6.00 to 7.00 | 5.00 to 6.00 | 6.00 to 7.00 | < 5.00
Cc1cnc2nc1NCCCCCCC(=O)N1CCN(CC1)c1cnc(F)c(c1)N2 [Compound 2, 2^6-fluoro-4^5-methyl-3,5-diaza-4(2,4)-pyrimidina-1(1,4)-piperazina-2(3,5)-pyridinacyclododecaphan-12-one] | 6.00 to 7.00 | 5.00 to 6.00 | 6.00 to 7.00 | 5.00 to 6.00
Cc1cnc2nc1NCCCCCNC(=O)c1ccc(cc1Cl)-c1cnc(F)c(c1)N2 [Compound 14, 1^3-chloro-2^6-fluoro-4^5-methyl-3,5,11-triaza-4(2,4)-pyrimidina-2(3,5)-pyridina-1(1,4)-benzenacyclododecaphan-12-one] | 6.00 to 7.00 | 5.00 to 6.00 | 6.00 to 7.00 | 5.00 to 6.00
Cc1cnc2nc1NCCCCCNC(=O)c1ccc(cc1S(C)(=O)=O)-c1cnc(F)c(c1)N2 [Compound 20, 2^6-fluoro-4^5-methyl-1^3-methylsulfonyl-3,5,11-triaza-4(2,4)-pyrimidina-2(3,5)-pyridina-1(1,4)-benzenacyclododecaphan-12-one] | 5.00 to 6.00 | 5.00 to 6.00 | 7.00 to 7.96 | < 5.00
Cc1cnc2nc1NCCCCCNC(=O)c1ccc(cc1N)-c1cnc(F)c(c1)N2 [Compound 9, 1^3-amino-2^6-difluoro-4^5-methyl-3,5,11-triaza-4(2,4)-pyrimidina-2(3,5)-pyridina-1(1,4)-benzenacyclododecaphan-12-one] | 6.00 to 7.00 | 5.00 to 6.00 | 6.00 to 7.00 | 5.00 to 6.00
Cc1cnc2nc1Nc1cccc(c1)CCCNC(=O)c1c(F)cc(cc1F)-c1cnc(F)c(c1)N2 [Compound 31, 1^3,1^5,2^6-trifluoro-4^5-methyl-3,5,10-triaza-4(2,4)-pyrimidina-2(3,5)-pyridina-1(1,4),6(1,3)-dibenzenacycloundecaphan-11-one] | 6.00 to 7.00 | 5.00 to 6.00 | 6.00 to 7.00 | < 5.00
Cc1cnc2nc1Nc1cc(ccc1F)CCNC(=O)c1ccc(cc1S(C)(=O)=O)-c1cnc(F)c(c1)N2 [Compound 29, 2^6,6^6-difluoro-4^5-methyl-1^3(methylsulfonyl)-3,5,9-triaza-4(2,4)-pyrimidina-2(3,5)-pyridina-1(1,4),6(1,3)-dibenzenacyclodecaphan-10-one] | 6.00 to 7.00 | 5.00 to 6.00 | 7.00 to 7.96 | < 5.00
Cc1cnc2nc1NCCCCCNC(=O)c1ccc(cc1F)-c1cnc(F)c(c1)N2 [Compound 6, 1^3,2^6-difluoro-4^5-methyl-3,5,11-triaza-4(2,4)-pyrimidina-2(3,5)-pyridina-1(1,4)-benzenacyclododecaphan-12-one] | 6.00 to 7.00 | 6.00 to 7.00 | 7.00 to 7.96 | 5.00 to 6.00

Now from value to compound:

pIC50 (JAK2) | pIC50 (JAK3) | pIC50 (JAK1) | pIC50 (TYK2) | SMILES
6.00 to 7.00 | 5.00 to 6.00 | 7.00 to 7.96 | 5.00 to 6.00 | Cc1cnc2nc1NCCCCNC(=O)c1ccc(cc1F)-c1cnc(F)c(c1)N2 [Compound 7, 1^2,2^6-difluoro-4^5-methyl-3,5,10-triaza-4(2,4)-pyrimidina-2(3,5)-pyridina-1(1,4)-benzenacycloundecaphan-11-one]
6.00 to 7.00 | 5.00 to 6.00 | 6.00 to 7.00 | 5.00 to 6.00 | Cc1cnc2nc1NCCCCCCCNC(=O)c1ccc(cc1F)-c1cnc(F)c(c1)N2 [Compound 12, I^3,2^6-difluoro-4^5-methyl-3,5,13-triaza-4(2,4)-pyrimidina-2(3,5)-pyridina-1(1,4)-benzenacydododecaphan-12-one]
> 8.00 | > 8.00 | > 8.00 | 7.00 to 7.96 | Cc1cnc2nc1Nc1cccc(c1)CCCCNC(=O)c1ccc(cc1)-c1cnc(F)c(c1)N2 [Compound 18, 2^6-fluoro-4^5-methyl-3,5,11-triaza-4(2,4)-pyrimidina-2(3,5)-pyridina-1(1,4),6(1,3)-dibenzenacyclododecaphan-12-one]
6.00 to 7.00 | 6.00 to 7.00 | 7.00 to 7.96 | < 5.00 | Cc1cnc2nc1Nc1ccc(F)c(c1)CCNC(=O)c1ccc(cc1S(C)(=O)=O)-c1cnc(F)c(c1)N2 [Compound 27, 2^6,6^4-difluoro-4^5-methyl-1^3(methylsulfonyl)-3,5,9-triaza-4(2,4)-pyrimidina-2(3,5)-pyridina-1(1,4),6(1,3)-dibenzenacyclodecaphan-10-one]
6.00 to 7.00 | 5.00 to 6.00 | 6.00 to 7.00 | < 5.00 | COC(=O)c1cc2ccc1C(=O)NCCCCCNc1nc(ncc1C)Nc1cc-2cnc1F [Compound 19, methyl 2^6-fluoro-4^5-methyl-12-oxo-3,5,11-triaza-4(2,4)-pyrimidina-2(3,5)-pyridina-1(1,4)-benzenacyclododecaphane-1^3-carboxylate]
6.00 to 7.00 | 5.00 to 6.00 | 6.00 to 7.00 | < 5.00 | Cc1cnc2nc1Nc1cccc(c1)CCNC(=O)c1c(F)cc(cc1F)-c1cnc(F)c(c1)N2 [Compound 33, 1^3,1^5,2^6-trifluoro-4^5-methyl-3,5,9-triaza-4(2,4)-pyrimidina-2(3,5)-pyridina-1(1,4),6(1,3)-dibenzenacyclodecaphan-10-one]
> 8.00 | 7.00 to 7.96 | > 8.00 | 7.00 to 7.96 | Cc1cnc2nc1Nc1cccc(c1)CCCNC(=O)c1ccc(cc1)-c1cnc(F)c(c1)N2 [Compound 17, 2^6-fluoro-4^5-methyl-3,5,10-triaza-4(2,4)-pyrimidina-2(3,5)-pyridina-1(1,4),6(1,3)-dibenzenacycloundecaphan-11-one]
> 8.00 | 6.00 to 7.00 | > 8.00 | 6.00 to 7.00 | Cc1cnc2nc1Nc1cccc(c1)CCCNC(=O)c1ccc(cc1F)-c1cnc(F)c(c1)N2 [Compound 23, 1^3,2^6-difluoro-4^5-methyl-3,5,10-triaza-4(2,4)-pyrimidina-2(3,5)-pyridina-1(1,4),6(1,3)-dibenzenacycloundecaphan-11-one]
7.00 to 7.96 | 6.00 to 7.00 | 7.00 to 7.96 | 5.00 to 6.00 | Cc1cnc2nc1NCCCCCNC(=O)c1ccc(c(F)c1)-c1cnc(F)c(c1)N2 [Compound 3, 1^2,2^6-difluoro-4^5-methyl-3,5,11-triaza-4(2,4)-pyrimidina-2(3,5)-pyridina-1(1,4)-benzenacyclododecaphan-12-one]
7.00 to 7.96 | 7.00 to 7.96 | > 8.00 | 5.00 to 6.00 | Cc1cnc2nc1Nc1cccc(c1)CCNC(=O)c1ccc(cc1F)-c1cnc(F)c(c1)N2 [Compound 28, 1^3,2^6-difluoro-4^5-methyl-3,5,9-triaza-4(2,4)-pyrimidina-2(3,5)-pyridina-1(1,4),6(1,3)-dibenzenacyclodecaphan-10-one]
